Measurements as given in US5030760A, “Tetrahydrophthalimides, and their production and use” (Sumitomo Chemical Company, Ltd., priority 1981, dated 1991).

Legend:
wild mustard = experiment: Test Example 1, foliar treatment, herbicidal activity; type: in vivo, Brassica kaber; conditions: 3 weeks
Description: (§1) The application of the tetrahydrophthalimides (I) as herbicides will be illustratively shown in the following Examples wherein the phytotoxicity to cultivated plants and the herbicidal activity on weeds were evaluated as follows: the aerial parts of the test plants were cut off and weighed (fresh weight); the percentage of the fresh weight of the treated plant to that of the untreated plant was calculated with the latter fresh weight taken as 100; and the crop damage and the herbicidal activity were evaluated by the standard given in the table below. The rating values of phytotoxicity, 0 and 1, and those of herbicidal effect, 5 and 4, are generally regarded as satisfactory to protect cultivated plants and control weeds, respectively. The rating values in the paddy field test alone were calculated from the dry weight of the test plants.
(§2) Plastic beakers (diameter, 10 cm; height, 10 cm) were filled with upland field soil, and the seeds of corn, barnyardgrass, wild oat, wild mustard and velvetleaf were separately sown in the beakers and grown for 2 weeks in the greenhouse. A designed amount of the test compound was sprayed to the foliage of the test plants by means of a small hand sprayer. After the spraying, the test plants were further grown for 3 weeks in the greenhouse, and herbicidal activity was examined. In this foliar treatment, the test compounds were formulated into an emulsifiable concentrate according to Preparation Example 2 and applied at a spray volume of 5 liters per are by dispersing it in water with the addition of a spreading agent.

velvetleaf [1] = experiment: as above; type: in vivo, Abutilon theophrasti; conditions: 3 weeks
Description: as §1, §2

corn [2] = experiment: Test Example 1, foliar treatment, phytotoxicity to corn; type: in vivo; conditions: 3 weeks; note: ranges in brackets are in %
Description: as §1, §2

velvetleaf [3] = experiment: Test Example 4, pre-emergence treatment, herbicidal activity; type: in vivo, Abutilon theophrasti; conditions: 20 days; note: ranges in brackets are in %
Description: as §1
(§3) Plastic beakers (diameter, 10 cm; height, 10 cm) were filled with upland field soil, and the seeds of corn, cotton and soybean and the seeds of morningglory, velvetleaf, Johnsongrass and green foxtail were separately sown in the beakers. A designed amount of the test compound was sprayed over the top by means of a small hand sprayer. After the spraying, the test plants were grown for 20 days in the greenhouse, and herbicidal activity and phytotoxicity were examined. In this pre-emergence treatment, the test compounds were formulated into an emulsifiable concentrate according to Preparation Example 2 and applied at a spray volume of 5 liters per are by dispersing it in water with the addition of a spreading agent.

wild oat = experiment: Test Example 1, foliar treatment, herbicidal activity; type: in vivo, Avena fatua; conditions: 3 weeks; note: ranges in brackets are in %
Description: as §1, §2

morningglory = experiment: Test Example 4, pre-emergence treatment, herbicidal activity; type: in vivo; conditions: 20 days; note: ranges in brackets are in %
Description: as §1, §3

corn [4] = experiment: Test Example 4, pre-emergence treatment, phytotoxicity to corn; type: in vivo; conditions: 20 days; note: ranges in brackets are in %
Description: as §1, §3

barnyardgrass = experiment: Test Example 1, foliar treatment, herbicidal activity; type: in vivo, Echinochloa crus-galli; conditions: 3 weeks; note: ranges in brackets are in %
Description: as §1, §2

soybean = experiment: Test Example 4, pre-emergence treatment, phytotoxicity to soybean; type: in vivo; conditions: 20 days; note: ranges in brackets are in %
Description: as §1, §3

cotton = experiment: Test Example 4, pre-emergence treatment, phytotoxicity to cotton; type: in vivo; conditions: 20 days; note: ranges in brackets are in %
Description: as §1, §3

Johnsongrass = experiment: Test Example 4, pre-emergence treatment, herbicidal activity; type: in vivo, Sorghum halepense; conditions: 20 days; note: ranges in brackets are in %
Description: as §1, §3

green foxtail = experiment: as above; type: in vivo, Setaria viridis; conditions: 20 days; note: ranges in brackets are in %
Description: as §1, §3

tall morningglory = experiment: Test Example 3, soil surface spraying, herbicidal activity; type: in vivo, Ipomoea purpurea; conditions: 20 days; note: ranges in brackets are in %
Description: as §1
(§4) Plastic trays (35 cm×25 cm×15 cm) were filled with upland field soil, and the seeds of tall morningglory, velvetleaf and sicklepod and the seeds of corn were sown therein. A designed amount of the test compounds formulated into a wettable powder according to Preparation Example 1 was dispersed in water and applied by spraying at a spray volume of 5 liters per are to the whole surface of the soil. After the spraying, the test plants were placed in a greenhouse and grown for 20 days, and herbicidal activity and phytotoxicity were examined.

corn [5] = experiment: Test Example 3, soil surface spraying, phytotoxicity to corn; type: in vivo; conditions: 20 days; note: ranges in brackets are in %
Description: as §1, §4

velvetleaf [6] = experiment: Test Example 3, soil surface spraying, herbicidal activity; type: in vivo, Abutilon theophrasti; conditions: 20 days; note: ranges in brackets are in %
Description: as §1, §4

sicklepod = experiment: as above; type: in vivo, Cassia obtusifolia; conditions: 20 days; note: ranges in brackets are in %
Description: as §1, §4
Throughout, for Herbicidal activity, Velvetleaf: ranges in brackets are in %.

CCCOc1cc(N2C(=O)C3=C(CCCC3)C2=O)c(F)cc1Br [compound 14]
Herbicidal activity, Wild mustard (wild mustard; 1.25 g/are): 5 (0) | Herbicidal activity, Wild mustard (wild mustard; 5 g/are): 5 (0) | Herbicidal activity, Velvetleaf (velvetleaf [1]; 1.25 g/are): 5 (0) | Herbicidal activity, Velvetleaf (velvetleaf [1]; 5 g/are): 5 (0) | Phytotoxicity, Corn (corn [2]; 1.25 g/are): 0 (100) | Phytotoxicity, Corn (corn [2]; 5 g/are): 1 (90-99) | Herbicidal activity, Velvetleaf (velvetleaf [3]; 2.5 g/are): 4 (1-10) | Herbicidal activity, Velvetleaf (velvetleaf [3]; 10 g/are): 5 (0) | Herbicidal activity, Wild cat (wild oat; 1.25 g/are): 3 (11-20) | Herbicidal activity, Wild cat (wild oat; 5 g/are): 5 (0) | Herbicidal activity, Morningglory (morningglory; 10 g/are): 4 (1-10) | Phytotoxicity, Corn (corn [4]; 2.5 g/are): 0 (100) | Phytotoxicity, Corn (corn [4]; 10 g/are): 0 (100) | Herbicidal activity, Barnyardgrass (barnyardgrass; 1.25 g/are): 3 (11-20) | Herbicidal activity, Barnyardgrass (barnyardgrass; 5 g/are): 5 (0) | Phytotoxicity, Soybean (soybean; 2.5 g/are): 0 (100) | Phytotoxicity, Soybean (soybean; 10 g/are): 1 (90-99) | Phytotoxicity, Cotton (cotton; 2.5 g/are): 0 (100) | Phytotoxicity, Cotton (cotton; 10 g/are): 0 (100) | Herbicidal activity, Johnsongrass (Johnsongrass; 2.5 g/are): 4 (1-10) | Herbicidal activity, Johnsongrass (Johnsongrass; 10 g/are): 4 (1-10) | Herbicidal activity, Green foxtail (green foxtail; 2.5 g/are): 4 (1-10) | Herbicidal activity, Green foxtail (green foxtail; 10 g/are): 4 (1-10)

CCC(C)Oc1cc(N2C(=O)C3=C(CCCC3)C2=O)c(F)cc1Br (centres unmarked) [compound 15]
Herbicidal activity, Wild mustard (wild mustard; 1.25 g/are): 5 (0) | Herbicidal activity, Wild mustard (wild mustard; 5 g/are): 5 (0) | Herbicidal activity, Velvetleaf (velvetleaf [1]; 1.25 g/are): 5 (0) | Herbicidal activity, Velvetleaf (velvetleaf [1]; 5 g/are): 5 (0) | Phytotoxicity, Corn (corn [2]; 1.25 g/are): 0 (100) | Phytotoxicity, Corn (corn [2]; 5 g/are): 1 (90-99) | Herbicidal activity, Velvetleaf (velvetleaf [3]; 2.5 g/are): 4 (1-10) | Herbicidal activity, Velvetleaf (velvetleaf [3]; 10 g/are): 5 (0) | Herbicidal activity, Wild cat (wild oat; 1.25 g/are): 2 (21-40) | Herbicidal activity, Wild cat (wild oat; 5 g/are): 5 (0) | Herbicidal activity, Morningglory (morningglory; 10 g/are): 5 (0) | Phytotoxicity, Corn (corn [4]; 2.5 g/are): 0 (100) | Phytotoxicity, Corn (corn [4]; 10 g/are): 0 (100) | Herbicidal activity, Barnyardgrass (barnyardgrass; 1.25 g/are): 2 (21-40) | Herbicidal activity, Barnyardgrass (barnyardgrass; 5 g/are): 5 (0) | Phytotoxicity, Soybean (soybean; 2.5 g/are): 0 (100) | Phytotoxicity, Soybean (soybean; 10 g/are): 1 (90-99) | Phytotoxicity, Cotton (cotton; 2.5 g/are): 0 (100) | Phytotoxicity, Cotton (cotton; 10 g/are): 1 (90-99) | Herbicidal activity, Johnsongrass (Johnsongrass; 2.5 g/are): 4 (1-10) | Herbicidal activity, Johnsongrass (Johnsongrass; 10 g/are): 4 (1-10) | Herbicidal activity, Green foxtail (green foxtail; 10 g/are): 4 (1-10)

CCOc1cc(N2C(=O)C3=C(CCCC3)C2=O)c(F)cc1Br [compound 13]
Herbicidal activity, Wild mustard (wild mustard; 1.25 g/are): 5 (0) | Herbicidal activity, Wild mustard (wild mustard; 5 g/are): 5 (0) | Herbicidal activity, Velvetleaf (velvetleaf [1]; 1.25 g/are): 5 (0) | Herbicidal activity, Velvetleaf (velvetleaf [1]; 5 g/are): 5 (0) | Phytotoxicity, Corn (corn [2]; 1.25 g/are): 0 (100) | Phytotoxicity, Corn (corn [2]; 5 g/are): 1 (90-99) | Herbicidal activity, Velvetleaf (velvetleaf [3]; 2.5 g/are): 4 (1-10) | Herbicidal activity, Velvetleaf (velvetleaf [3]; 10 g/are): 5 (0) | Herbicidal activity, Wild cat (wild oat; 1.25 g/are): 2 (21-40) | Herbicidal activity, Wild cat (wild oat; 5 g/are): 5 (0) | Herbicidal activity, Morningglory (morningglory; 10 g/are): 5 (0) | Phytotoxicity, Corn (corn [4]; 2.5 g/are): 0 (100) | Phytotoxicity, Corn (corn [4]; 10 g/are): 0 (100) | Herbicidal activity, Barnyardgrass (barnyardgrass; 1.25 g/are): 2 (21-40) | Herbicidal activity, Barnyardgrass (barnyardgrass; 5 g/are): 5 (0) | Phytotoxicity, Soybean (soybean; 2.5 g/are): 0 (100) | Phytotoxicity, Soybean (soybean; 10 g/are): 1 (90-99) | Phytotoxicity, Cotton (cotton; 2.5 g/are): 0 (100) | Phytotoxicity, Cotton (cotton; 10 g/are): 1 (90-99) | Herbicidal activity, Johnsongrass (Johnsongrass; 2.5 g/are): 4 (1-10) | Herbicidal activity, Johnsongrass (Johnsongrass; 10 g/are): 5 (0) | Herbicidal activity, Green foxtail (green foxtail; 2.5 g/are): 4 (1-10) | Herbicidal activity, Green foxtail (green foxtail; 10 g/are): 5 (0)

CCCOc1cc(N2C(=O)C3=C(CCCC3)C2=O)c(F)cc1Cl [compound 3]
Herbicidal activity, Wild mustard (wild mustard; 1.25 g/are): 5 (0) | Herbicidal activity, Wild mustard (wild mustard; 5 g/are): 5 (0) | Herbicidal activity, Tall morningglory (tall morningglory; 5 g/are): 4 (1-10) | Herbicidal activity, Tall morningglory (tall morningglory; 10 g/are): 5 (0) | Phytotoxicity, Corn (corn [5]; 5 g/are): 0 (100) | Phytotoxicity, Corn (corn [5]; 10 g/are): 0 (100) | Herbicidal activity, Velvetleaf (velvetleaf [1]; 1.25 g/are): 5 (0) | Herbicidal activity, Velvetleaf (velvetleaf [1]; 5 g/are): 5 (0) | Phytotoxicity, Corn (corn [2]; 1.25 g/are): 0 (100) | Phytotoxicity, Corn (corn [2]; 5 g/are): 1 (90-99) | Herbicidal activity, Velvetleaf (velvetleaf [3]; 2.5 g/are): 5 (0) | Herbicidal activity, Velvetleaf (velvetleaf [3]; 10 g/are): 5 (0) | Herbicidal activity, Wild cat (wild oat; 1.25 g/are): 4 (1-10) | Herbicidal activity, Wild cat (wild oat; 5 g/are): 5 (0) | Herbicidal activity, Morningglory (morningglory; 2.5 g/are): 4 (1-10) | Herbicidal activity, Morningglory (morningglory; 10 g/are): 4 (1-10) | Herbicidal activity, Velvetleaf (velvetleaf [6]; 5 g/are): 5 (0) | Herbicidal activity, Velvetleaf (velvetleaf [6]; 10 g/are): 5 (0) | Phytotoxicity, Corn (corn [4]; 2.5 g/are): 0 (100) | Phytotoxicity, Corn (corn [4]; 10 g/are): 1 (90-99) | Herbicidal activity, Barnyardgrass (barnyardgrass; 1.25 g/are): 4 (1-10) | Herbicidal activity, Barnyardgrass (barnyardgrass; 5 g/are): 5 (0) | Herbicidal activity, Sicklepod (sicklepod; 5 g/are): 4 (1-10) | Herbicidal activity, Sicklepod (sicklepod; 10 g/are): 5 (0) | Herbicidal activity, Johnsongrass (Johnsongrass; 2.5 g/are): 4 (1-10) | Herbicidal activity, Johnsongrass (Johnsongrass; 10 g/are): 5 (0) | Herbicidal activity, Green foxtail (green foxtail; 2.5 g/are): 4 (1-10) | Herbicidal activity, Green foxtail (green foxtail; 10 g/are): 5 (0)

CCOc1cc(N2C(=O)C3=C(CCCC3)C2=O)c(F)cc1Cl [compound 2]
Herbicidal activity, Wild mustard (wild mustard; 1.25 g/are): 5 (0) | Herbicidal activity, Wild mustard (wild mustard; 5 g/are): 5 (0) | Herbicidal activity, Tall morningglory (tall morningglory; 5 g/are): 4 (1-10) | Herbicidal activity, Tall morningglory (tall morningglory; 10 g/are): 4 (1-10) | Phytotoxicity, Corn (corn [5]; 5 g/are): 0 (100) | Phytotoxicity, Corn (corn [5]; 10 g/are): 0 (100) | Herbicidal activity, Velvetleaf (velvetleaf [1]; 1.25 g/are): 5 (0) | Herbicidal activity, Velvetleaf (velvetleaf [1]; 5 g/are): 5 (0) | Phytotoxicity, Corn (corn [2]; 1.25 g/are): 0 (100) | Phytotoxicity, Corn (corn [2]; 5 g/are): 1 (90-99) | Herbicidal activity, Velvetleaf (velvetleaf [3]; 2.5 g/are): 5 (0) | Herbicidal activity, Velvetleaf (velvetleaf [3]; 10 g/are): 5 (0) | Herbicidal activity, Wild cat (wild oat; 1.25 g/are): 3 (11-20) | Herbicidal activity, Wild cat (wild oat; 5 g/are): 5 (0) | Herbicidal activity, Morningglory (morningglory; 2.5 g/are): 4 (1-10) | Herbicidal activity, Morningglory (morningglory; 10 g/are): 4 (1-10) | Herbicidal activity, Velvetleaf (velvetleaf [6]; 5 g/are): 5 (0) | Herbicidal activity, Velvetleaf (velvetleaf [6]; 10 g/are): 5 (0) | Phytotoxicity, Corn (corn [4]; 2.5 g/are): 0 (100) | Phytotoxicity, Corn (corn [4]; 10 g/are): 1 (90-99) | Herbicidal activity, Barnyardgrass (barnyardgrass; 1.25 g/are): 3 (11-20) | Herbicidal activity, Barnyardgrass (barnyardgrass; 5 g/are): 5 (0) | Phytotoxicity, Soybean (soybean; 2.5 g/are): 0 (100) | Phytotoxicity, Soybean (soybean; 10 g/are): 0 (100) | Phytotoxicity, Cotton (cotton; 2.5 g/are): 0 (100) | Phytotoxicity, Cotton (cotton; 10 g/are): 0 (100) | Herbicidal activity, Sicklepod (sicklepod; 5 g/are): 4 (1-10) | Herbicidal activity, Sicklepod (sicklepod; 10 g/are): 5 (0) | Herbicidal activity, Johnsongrass (Johnsongrass; 2.5 g/are): 4 (1-10) | Herbicidal activity, Johnsongrass (Johnsongrass; 10 g/are): 5 (0) | Herbicidal activity, Green foxtail (green foxtail; 2.5 g/are): 4 (1-10) | Herbicidal activity, Green foxtail (green foxtail; 10 g/are): 5 (0)
